The text below walks through data of patent publication US12697366B2, “Thermogenic compositions and methods” (Ohio State Innovation Foundation, priority 2016, dated 2026).

One assay concerns ob/ob mice. The assay can be described thus: Study 4 (Example 2): EREG injected into epididymal iAb fat of ob/ob mice. It counts as in vivo, mouse. The procedure:
6-week old Ob/Ob male mice, purchased from the Jackson laboratory (n=10), were fed a high fat diet (HF, 45% kcal from fat, D12451, Research Diet Inc., New Brunswick, NJ) for 30 days and then randomly assigned into two groups: • 1) a control group injected with 0.1 mL sterile PBS into both epididymal iAb fat (n=5), and • 2) EREG-treated group injected with 60 ng EREG per epididymal iAb fat depot (n=5). Mice were injected with 0.1 mL sterile PBS, containing 600 ng EREG/mL. These mice were pair fed and individually housed during injections. […] Metabolic measurements were performed as described in 2.5. WAT were collected for protein, mRNA, and histology. Metabolic parameters in study 2.3 and 2.4 were measured by indirect calorimetry (CLAMS, Columbus Instruments, Columbus, OH) at ambient temperature (22° C.) with 12 h light/dark cycles. Animals were fed the same HF diet and water provided ad libitum. Mice were placed individually and allowed to acclimatize in the chambers for 12 h, and O2 consumption, CO2 production, energy expenditure, and locomotor activity were measured for 24 h. Then temperature was changed to 4° C. for 6 h. […] GTT was performed in overnight fasted Ob/Ob mice (study 4, N=5 per group) by intraperitoneal injection of 0.004 mL 25% glucose/g body weight. One week after GTT, an ITT test was performed in same overnight fasted mice. They were injected with a single intraperitoneal insulin dose (1 mU of insulin/g body weight). Blood glucose was measured from mouse tails by One Touch Ultra glucometer (LifeScan, Wayne, PA).

For assay [1], the system named is omental iAb preadipocytes. The assay can be described thus: FD-glucose uptake in human omental iAb preadipocytes. It counts as cell-based. Conditions: for glucose uptake in preadipocytes from lean insulin-sensitive patients: EREG vs insulin; for glucose uptake in preadipocytes from an insulin resistant patient: different doses of EREG, insulin 10 μg/ml. As for the experimental part: FIGS. 16A to 16M show EREG improves glucose uptake in ob/ob mice and in mouse and human preadipocytes. FIG. 16A: GTT was performed on fasting Veh (open circles) and EREG-treated (closed circles) ob/ob (N=5/group, Study 4) mice (12 hrs) using a single 25% dextrose injection (0.004 mL/g body weight). Asterisks indicate significant differences between Veh- and EREG-treated groups. FIG. 16B: ITT was performed in the same mice groups. […]: Fluorescently-labelled (FD) glucose uptake was measured in mouse […] preadipocytes. FIG. 16C: Preadipocytes were treated with vehicle, insulin (ins), EREG and forskolin for 30 mins. […] Asterisks represent significant differences compared to vehicle (P<0.05). FIG. 16D: Dose dependent increase in FD-glucose uptake by 3T3-L1 preadipocytes stimulated with different EREG concentrations. Data are shown as a percent of Veh-treated control. FIGS. 16E to 16G: FD-glucose uptake was measured in omental iAb preadipocytes isolated from lean (FIG. 16E) and obese insulin-resistant (FIG. 16F, 16G) patients in the presence of insulin, EREG, and forskolin. […] Omental preadipocytes from obese insulin resistant […] (FIG. 16G) and […] (FIG. 16K) were also stimulated with and without EREG in presence and absence of EGFR and MAPK inhibitors for 30 mins. Data were calculated as a percent to non-stimulated control (Veh, 100%, dash line) and shown as a mean±SD. Asterisks represent significant differences compared to vehicle (P<0.05), Mann-Whitney U test. FIG. 16H: FD-glucose uptake was measured in mouse 3T3-L1 preadipocytes with or without EREG (50 ng/mL) and inhibitors of MAPK and PI3K (MAPK-I, 10 uM, and PI3K-I, 200 nM). Data (mean±SD) are shown as percent to control (Veh 100%). […] P<0.05 indicate significant differences between EREG-treated and PI3K-I/EREG treated groups. Asterisks indicate significant differences between vehicle control and treatments with inhibitors. FIG. 16I: Phosphorylated (p-Akt) and non-phosphorylated (total) Akt protein levels were measured in mouse 3T3-L1 preadipocytes stimulated with or without EREG (50 ng/ml), PI3K-I (200 nM) for 20 mins by western blot and quantified by ImageJ Software. […] Asterisks represent significant differences compared to vehicle (P<0.05). FIG. 16J: Plasma insulin levels in fasting Veh and EREG-treated ob/ob mice measured by ELISA. FIG. 16L: Phosphorylated Akt protein levels were measured by western blot in human preadipocytes from an obese person stimulated with or without EREG (50 ng/ml) and PI3K-I (200 nM) for 20 mins. […] Asterisks represent significant differences compared to vehicle (P<0.05). Mann-Whitney U test. FIG. 16M: Schematic depicting two different pathways involved in EREG-mediated induction of thermogenesis and glucose uptake. EREG acts via MAPK to induce leptin secretion and also stimulates hormone sensitive lipase (HSL). HSL hydrolyzes free fatty acids activating PPARα activation. EGF, EGFR inhibition, or MAPK inhibition streamlines EREG-dependent PI3K/Akt activation that increase glucose uptake.
Human stromal vascular fraction (SVF) was isolated from iAb (omental) fat of lean and obese men and women as described before and maintained in preadipocyte culture media (Lonza, Allendale, NJ). Differentiation was carried out for 9-10 days using preadipocyte culture media supplemented with insulin, dexamethasone, IBMX and indomethacin (Lonza, Allendale, NJ).
Glucose uptake assay was performed using glucose uptake cell-based assay kit (Cayman Chemical, Ann Arbor, MI). 3T3-L1 or human preadipocytes were cultured at a density of 5×10^4 per well into a 96-well plate (n=7) in high glucose media and grown overnight. Old cell culture medium was removed the next day and washed with PBS to remove residual glucose. Supplied 2-deoxy-2-[(7-nitro-2,1,3-benzoxadiazol-4-yl)amino]-D-glucose) (2-NBDG) was diluted to 150 μg/mL in DMEM medium without glucose, phenol red, L-glutamine, sodium pyruvate, and HEPES (Life technologies, Grand Island, New York). […]

For the next assay, the system named is STZ mice. The assay can be described thus: AAC2, INS and AAC2-INS treatment of STZ mice (streptozotocin-induced type 1 diabetes). Conditions: mouse, in vivo. As for the experimental part:
The untreated STZ mice died 32 days after STZ induction of experimental type 1 diabetes. […] Liver toxicity was measured by plasma levels of liver enzyme aspartate aminotransferase (AST).
Human INS was used for treatment to distinguish from endogenous mouse INS. […] Insulin tolerance test (ITT) was used to assess insulin sensitivity. […] Glucose tolerance test (GTT) was used to assess glucose tolerance.
[…] SLC6A6 is a principal transporter for neurotransmitter and osmolyte taurine, in all treated STZ mice. […] MVK a key kinase in cholesterol synthesis pathway. […] GPX6 a key antioxidant enzyme induced in the liver in response to oxidative stress.
Cognitive performance was measured using Barnes maze behavioral test to measure spatial learning (escape latency (60B) and number of errors (60C)) and memory (60D).

Setting [2] is: insulin resistant patient, EREG with EGFR inhibitor, 30 mins.

As to “EREG: Epiregulin, member of the epidermal growth factor family; recombinant mouse or human protein”, in the assay with ob/ob mice (EREG-treated vs control), the “RER during the light cycle” value was “significantly lower” and the “activity after transition from ambient temperature to the cold” value is on record as “higher”. In addition, the weight gain entry in the assay with ob/ob mice (after 6 weeks of treatment with EREG) is “reduced”. In the assay on ob/ob mice (between groups), the “expression of PPARα target genes and mitochondrial genes in iAb fat” value is listed as “similar”; the “metabolic rate before and during cold exposure” value is “identical”; the “response to insulin (ITT)” value was “similar”. For the same substance, in the assay on ob/ob mice (compared to non-treated group), the “glucose tolerance (GTT)” value is “markedly improved”. In the assay with ob/ob mice (mouse, in vivo), the “weight of BAT, WAT depot and liver” value is on record as “not associated with significant changes”. For the same substance, the food intake result with ob/ob mice (pair-fed HF diet) was “identical”. In assay [1], the “glucose uptake in preadipocytes from lean insulin-sensitive patients” value is “induced similar glucose uptake” and the “glucose uptake in preadipocytes from an insulin resistant patient” value is given as “dose-dependent fashion”. Besides, in assay [1] (setting [2]), the “glucose uptake with inhibition of EGFR, compared to insulin response (100%)” value was 212% and the “glucose uptake with inhibition of EGFR, compared to non-treated preadipocytes (100%)” value was 268%.

In the case of insulin: insulin (bovine or human), in the assay on STZ mice, the “expression of Glutathone peroxidase (GPX6)” value was “significantly increased” and the “expression of insulin 1 gene (Ins1) in the brain” value is on record as “detrimental suppression”. In assay [1], the “glucose uptake in preadipocytes from lean insulin-sensitive patients” value is on record as “induced similar glucose uptake” and the “glucose uptake in preadipocytes from an insulin resistant patient” value was “not significant”.
